Data as given in ChEMBL document CHEMBL5725343, “Amino-substituted isothiazoles” (2017).

Experiments:
[1] = target: Mitotic checkpoint serine/threonine-protein kinase BUB1 (Homo sapiens, UniProt O43683); assay: Bub1 Kinase Assay: Recombinant fusion proteins of GST and human CDK2 and of GST and human CycE, expressed in insect cells (Sf9) and purified by Glutathion-Sepharose affinity chromatography, were purchased from ProQinase GmbH (Freiburg, Germany). As substrate for the kinase reaction biotinylated peptide biotin-Ttds-YISPLKSPYKISEG (C-terminus in amid form) was used which can be purchased e.g. form the company JERINI peptide technologies (Berlin, Germany). For the assay 50 nl of a 100 fold concentrated solution of the test compound in DMSO was pipetted into a black low volume 384 well microtiter plate (Greiner Bio-One, Frickenhausen, Germany), 2 ul of a solution of CDK2/CycE in aqueous assay buffer [50 mM Tris/HCl pH 8.0, 10 mM MgCl2, 1.0 mM dithiothreitol, 0.1 mM sodium ortho-vanadate, 0.01% (v/v) Nonidet-P40 (Sigma)] were added and the mixture was incubated for 15 min at 22° C. to allow pre-binding of the test compounds to the enzyme before the start of the kinase reaction. Then the kinase reaction was started by the addition of 3 ul of a solution of adenosine-tri-phosphate (ATP, 16.7 uM=>final conc. in the 5 ul assay volume is 10 uM) and substrate (1.25 uM=>final conc. in the 5 ul assay volume is 0.75 uM) in assay buffer and the resulting mixture was incubated for a reaction time of 25 min at 22° C. […]
[2] = target: T1, Dual specificity protein kinase TTK (Homo sapiens, UniProt P33981); assay: Mps-1 Kinase Assay: N-terminally GST-tagged human full length recombinant Mps-1 kinase (purchased from Invitrogen, Karslruhe, Germany, cat. no PV4071) was used. As substrate for the kinase reaction a biotinylated peptide of the amino-acid sequence biotin-Ahx-PWDPDDADITEILG (C-terminus in amide form, purchased from Biosyntan GmbH, Berlin) was used. For the assay 50 nl of a 100-fold concentrated solution of the test compound in DMSO was pipetted into a black low volume 384 well microtiter plate (Greiner Bio-One, Frickenhausen, Germany), 2 ul of a solution of Mps-1 in assay buffer [0.1 mM sodium-ortho-vanadate, 10 mM MgCl2, 2 mM DTT, 25 mM Hepes pH 7.7, 0.05% BSA (w/v), 0.001% Pluronic F-127] were added and the mixture was incubated for 15 min at 22° C. to allow pre-binding of the test compounds to Mps-1 before the start of the kinase reaction. Then the kinase reaction was started by the addition of 3 ul of a solution of 16.7 uM adenosine-tri-phosphate (ATP, 16.7 uM=>final conc. in the 5 ul assay volume is 10 uM) and peptide substrate (1.67 uM=>final conc. in the 5 ul assay volume is 1 uM) in assay buffer and the resulting mixture was incubated for a reaction time of 60 min at 22° C. […]
T1 sequence (P33981 whole entry): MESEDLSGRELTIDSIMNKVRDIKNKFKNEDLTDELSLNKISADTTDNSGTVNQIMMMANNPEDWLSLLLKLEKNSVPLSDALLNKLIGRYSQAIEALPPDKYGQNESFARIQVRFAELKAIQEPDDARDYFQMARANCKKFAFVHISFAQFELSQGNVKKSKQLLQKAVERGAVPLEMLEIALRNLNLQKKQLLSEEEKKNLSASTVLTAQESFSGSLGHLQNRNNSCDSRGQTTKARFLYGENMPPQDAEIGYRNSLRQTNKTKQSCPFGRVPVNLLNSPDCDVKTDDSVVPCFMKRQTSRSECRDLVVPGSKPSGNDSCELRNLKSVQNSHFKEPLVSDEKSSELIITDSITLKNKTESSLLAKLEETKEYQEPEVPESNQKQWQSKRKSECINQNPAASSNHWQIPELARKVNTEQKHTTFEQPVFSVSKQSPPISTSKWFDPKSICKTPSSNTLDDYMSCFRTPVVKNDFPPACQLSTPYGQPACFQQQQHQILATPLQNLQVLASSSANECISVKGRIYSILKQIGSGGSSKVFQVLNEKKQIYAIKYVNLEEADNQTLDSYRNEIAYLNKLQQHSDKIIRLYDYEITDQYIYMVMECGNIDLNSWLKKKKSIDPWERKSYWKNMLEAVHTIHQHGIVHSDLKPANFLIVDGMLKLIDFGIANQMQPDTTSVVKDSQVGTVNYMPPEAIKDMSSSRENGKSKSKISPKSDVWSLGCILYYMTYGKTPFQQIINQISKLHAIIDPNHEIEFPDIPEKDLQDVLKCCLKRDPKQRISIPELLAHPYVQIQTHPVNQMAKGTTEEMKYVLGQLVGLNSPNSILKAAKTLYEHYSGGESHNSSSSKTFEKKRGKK

[3] = […]: N-terminally His6-tagged recombinant catalytic domain of human Bub1 (amino acids 704-1085), expressed in insect cells (Hi5) and purified by Ni-NTA affinity chromatography and subsequent size exclusion chromatography, was used as enzyme. As substrate for the kinase reaction the biotinylated peptide biotin-Ahx-VLLPKKSFAEPG (C-terminus in amid form) was used which can be purchased e.g. form the company Biosyntan (Berlin, Germany). For the assay 50 nl of a 100 fold concentrated solution of the test compound in DMSO was pipetted into a black low volume 384 well microtiter plate (Greiner Bio-One, Frickenhausen, Germany), 2 ul of a solution of Bub1 in aqueous assay buffer [50 mM Tris/HCl pH 7.5, 10 mM magnesium chloride (MgCl2), 200 mM potassium chloride (KCl), 1.0 mM dithiothreitol (DTT), 0.1 mM sodium ortho-vanadate, 1% (v/v) glycerol, 0.01% (w/v) bovine serum albumine (BSA), 0.005% (v/v) Trition X-100 (Sigma), 1x Complete EDTA-free protease inhibitor mixture (Roche)] were added and the mixture was incubated for 15 min at 22° C. to allow pre-binding of the test compounds to the enzyme before the start of the kinase reaction. […]

Mitotic checkpoint serine/threonine-protein kinase BUB1, sequence (O43683 whole entry, the tested form may be a part): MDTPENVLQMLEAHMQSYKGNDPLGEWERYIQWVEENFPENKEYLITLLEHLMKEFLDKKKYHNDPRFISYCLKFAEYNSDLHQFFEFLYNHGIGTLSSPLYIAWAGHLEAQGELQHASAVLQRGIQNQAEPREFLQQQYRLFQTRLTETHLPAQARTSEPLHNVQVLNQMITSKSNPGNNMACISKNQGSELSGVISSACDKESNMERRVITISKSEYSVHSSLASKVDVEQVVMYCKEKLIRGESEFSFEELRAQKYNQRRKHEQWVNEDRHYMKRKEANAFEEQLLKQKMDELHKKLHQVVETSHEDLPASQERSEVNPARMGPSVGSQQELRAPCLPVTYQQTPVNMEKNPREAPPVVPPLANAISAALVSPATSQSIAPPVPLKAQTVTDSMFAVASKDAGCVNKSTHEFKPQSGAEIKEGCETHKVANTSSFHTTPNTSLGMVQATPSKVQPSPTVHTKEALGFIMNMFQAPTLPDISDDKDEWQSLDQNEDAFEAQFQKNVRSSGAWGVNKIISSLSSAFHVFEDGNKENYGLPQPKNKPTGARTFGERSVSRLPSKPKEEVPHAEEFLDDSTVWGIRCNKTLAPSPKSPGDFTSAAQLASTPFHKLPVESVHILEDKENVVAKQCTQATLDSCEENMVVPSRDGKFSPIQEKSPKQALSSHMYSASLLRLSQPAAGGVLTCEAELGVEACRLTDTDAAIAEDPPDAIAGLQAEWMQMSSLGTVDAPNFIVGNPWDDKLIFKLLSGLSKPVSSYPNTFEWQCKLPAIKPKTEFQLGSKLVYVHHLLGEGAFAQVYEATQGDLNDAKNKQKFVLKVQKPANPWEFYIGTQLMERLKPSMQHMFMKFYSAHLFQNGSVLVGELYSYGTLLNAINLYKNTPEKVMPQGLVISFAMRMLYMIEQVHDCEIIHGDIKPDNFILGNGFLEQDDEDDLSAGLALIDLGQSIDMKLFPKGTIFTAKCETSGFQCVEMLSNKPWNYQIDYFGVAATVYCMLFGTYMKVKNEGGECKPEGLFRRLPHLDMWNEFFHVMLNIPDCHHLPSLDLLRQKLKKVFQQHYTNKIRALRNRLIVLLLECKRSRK

With `Cc1nsc(Nc2cncc(-n3cccn3)n2)c1C(=O)Nc1ccc(F)c(F)c1` the IC50 [1] was 15 µM and the IC50 [2] was greater than 20 µM.

Work on `COc1ccc(Oc2ccc(CC(=O)c3c(C)nsc3Nc3cc(C#N)ccn3)cn2)cc1` yielded an IC50 [3] greater than 20 µM.

`Cc1nsc(Nc2cc(C#N)ccn2)c1C(=O)Nc1ccc(Oc2ccc(F)cc2F)nc1` showed an IC50 [1] greater than 20 µM and an IC50 [2] greater than 20 µM.
